Test in all cases: fluorescence sialidase assay with 4-MU-Neu5Ac
Type in all cases: biochemical

Assay [1] concerns the target T1, GvNanH3 (Gardnerella vaginalis, UniProt S4HLQ0).
T1 construct: full-length gene in pET28a, N-terminal His6 tag, E. coli BL21(DE3)
An excerpt: fluorescence sialidase assay with 4-MU-Neu5Ac on GvNanH3 | All enzymes were inhibited by the well-characterized, broad-spectrum sialidase inhibitor, Neu5ac2en

Assay [2] concerns the target T2, PtNanH2 (Hoylesella timonensis, UniProt D1VWZ8).
T2 construct: gene HMPREF9019_0332; full-length gene in pET28a, N-terminal His6 tag, E. coli BL21(DE3); 1,030 amino acids incl. predicted signal peptide

The target in assay [3] is T3, PtNanH1 (Hoylesella timonensis, UniProt D1VY87).
T3 construct: gene HMPREF9019_1088; full-length gene in pET28a, N-terminal His6 tag, E. coli BL21(DE3); 413 amino acids incl. predicted signal peptide

Assay [4] deals with T4, PdNanH (Prevotella denticola, UniProt F0H7U2).
T4 construct: gene HMPREF9303_0049; full-length gene in pET28a, N-terminal His6 tag, E. coli BL21(DE3); predicted signal peptide
The conditions noted are these: 100 µM 4-MU-Neu5Ac, 5 nM enzyme, sodium acetate pH 5.5, 37 °C. An excerpt:
fluorescence sialidase assay with 4-MU-Neu5Ac on PdNanH | All enzymes were inhibited by the well-characterized, broad-spectrum sialidase inhibitor, Neu5ac2en

In assay [5] the target is T5, PbNanH (Prevotella bivia, UniProt I4ZBT3).
T5 construct: gene PrebiDRAFT_2006; full-length gene in pET28a, N-terminal His6 tag, E. coli BL21(DE3)
Particulars: 100 µM 4-MU-Neu5Ac, 5 nM enzyme, sodium acetate pH 5.5, 37 °C. An excerpt: fluorescence sialidase assay with 4-MU-Neu5Ac on PbNanH | All enzymes were inhibited by the well-characterized, broad-spectrum sialidase inhibitor, Neu5ac2en

Regarding `CC(=O)N[C@H]1[C@H]([C@H](O)[C@H](O)CO)OC(C(=O)O)=C[C@@H]1O` [Neu5Ac2en], the IC50 is 29 ± 5.6 µM in assay [1]; 56 ± 23 µM in assay [2]; 180 ± 92.3 µM in assay [3]; 50.5 ± 22.5 µM in assay [4]; 103 ± 20.3 µM in assay [5].

`CC(=O)N[C@H]1[C@H]([C@H](O)[C@H](O)CO)OC(C(=O)O)=C[C@@H]1N=C(N)N` [Zanamivir] displayed an IC50 in assay [2] of 33.6 ± 15.5 µM.

(Values after publication PMC11388281, “Prevotella are major contributors of sialidases in the human vaginal microbiome” (Proceedings of the National Academy of Sciences of the …, 2024).)
